The record followed here is patent publication US12581252B2, “Substituted pyrrolo[3,4-b]pyridines as PI3K-α inhibitors” (Relay Therapeutics, Inc., priority 2020, dated 2026).

By IC50 is commonly meant the concentration at which inhibition is half-maximal.

The assay deals with H1047R PIK3CA enzyme (Homo sapiens, UniProt P42336, H1047R). In words: ADP-Glo Biochemical PIK3CA Kinase Assay. Background: ADP-Glo turns the ADP formed in a reaction into a luminescent signal.
H1047R PIK3CA enzyme, sequence (P42336 whole entry H1047R): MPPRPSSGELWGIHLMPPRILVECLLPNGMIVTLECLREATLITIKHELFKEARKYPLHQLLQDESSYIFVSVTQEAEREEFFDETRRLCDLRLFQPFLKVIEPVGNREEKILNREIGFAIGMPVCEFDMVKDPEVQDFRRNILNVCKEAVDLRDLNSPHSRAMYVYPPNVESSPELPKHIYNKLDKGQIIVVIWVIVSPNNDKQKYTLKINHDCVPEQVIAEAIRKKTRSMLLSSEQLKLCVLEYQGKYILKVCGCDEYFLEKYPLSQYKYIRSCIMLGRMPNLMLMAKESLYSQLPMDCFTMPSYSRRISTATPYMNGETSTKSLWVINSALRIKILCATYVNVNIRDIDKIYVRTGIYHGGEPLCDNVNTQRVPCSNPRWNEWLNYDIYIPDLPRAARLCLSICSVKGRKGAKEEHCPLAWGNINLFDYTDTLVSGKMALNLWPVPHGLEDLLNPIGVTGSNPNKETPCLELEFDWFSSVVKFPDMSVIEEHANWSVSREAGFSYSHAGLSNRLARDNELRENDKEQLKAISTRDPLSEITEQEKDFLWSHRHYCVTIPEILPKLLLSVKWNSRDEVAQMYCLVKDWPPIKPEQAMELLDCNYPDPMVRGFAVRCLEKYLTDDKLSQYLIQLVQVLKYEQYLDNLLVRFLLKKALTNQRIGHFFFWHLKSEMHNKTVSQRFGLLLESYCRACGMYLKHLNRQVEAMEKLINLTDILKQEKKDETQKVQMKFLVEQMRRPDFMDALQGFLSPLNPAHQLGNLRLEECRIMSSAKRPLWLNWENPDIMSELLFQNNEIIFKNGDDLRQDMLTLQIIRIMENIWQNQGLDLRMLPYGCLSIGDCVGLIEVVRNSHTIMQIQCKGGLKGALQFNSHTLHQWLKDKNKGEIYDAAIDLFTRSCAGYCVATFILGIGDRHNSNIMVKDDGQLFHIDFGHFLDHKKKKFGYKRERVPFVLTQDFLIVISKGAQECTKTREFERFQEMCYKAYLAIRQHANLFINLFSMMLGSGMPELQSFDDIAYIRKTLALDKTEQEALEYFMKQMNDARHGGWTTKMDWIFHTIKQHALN
H1047R PIK3CA enzyme, sequence (P27986 whole entry partner): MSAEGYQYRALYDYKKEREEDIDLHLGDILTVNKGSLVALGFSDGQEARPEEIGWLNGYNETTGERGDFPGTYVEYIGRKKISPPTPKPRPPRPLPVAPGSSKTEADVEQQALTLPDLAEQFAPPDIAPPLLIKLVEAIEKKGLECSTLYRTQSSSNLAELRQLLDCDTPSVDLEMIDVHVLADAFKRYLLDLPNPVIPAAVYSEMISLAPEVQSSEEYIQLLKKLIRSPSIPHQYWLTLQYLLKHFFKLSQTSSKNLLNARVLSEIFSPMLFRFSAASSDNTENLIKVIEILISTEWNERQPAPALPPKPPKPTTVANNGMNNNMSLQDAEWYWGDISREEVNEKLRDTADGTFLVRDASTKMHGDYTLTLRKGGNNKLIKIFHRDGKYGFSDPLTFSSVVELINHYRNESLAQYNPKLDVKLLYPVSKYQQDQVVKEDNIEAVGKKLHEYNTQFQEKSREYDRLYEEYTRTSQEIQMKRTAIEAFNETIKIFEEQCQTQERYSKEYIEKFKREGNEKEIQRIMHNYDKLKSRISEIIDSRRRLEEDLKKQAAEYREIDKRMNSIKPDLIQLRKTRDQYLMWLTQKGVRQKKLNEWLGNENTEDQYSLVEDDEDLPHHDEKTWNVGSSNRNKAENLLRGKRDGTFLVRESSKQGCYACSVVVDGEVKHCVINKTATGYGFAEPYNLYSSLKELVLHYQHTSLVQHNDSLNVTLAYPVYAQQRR
In the case of `O=C(Nc1cc(Br)cc2c1C(c1ccc(F)cc1Cl)NC2=O)c1cc(F)cc(C(F)(F)F)c1` (stereo not drawn) [Compound I-756], the IC50 is 0.1 to 0.5 µM.

Take `Cc1ccc(F)cc1[C@H]1NC(=O)c2cc(Br)cc(NC(=O)c3cc(F)cc(C(F)(F)F)c3)c21` [Compound I-757]: the IC50 is 1 to 10 µM. Take `Cc1ccc(F)cc1[C@@H]1NC(=O)c2cc(Br)cc(NC(=O)c3cc(F)cc(C(F)(F)F)c3)c21` [Compound I-758]: the half-inhibitory concentration (IC50) was not above 0.1 µM. `Cc1ccc(F)cc1C1NC(=O)c2cc(Br)cc(NC(=O)c3cc(F)cc(C(F)(F)F)c3)c21` (stereo not drawn) [Compound I-759] registered an IC50 not above 0.1 µM. The figure for `O=C1NC(c2cc(F)ccc2Cl)c2c(Nc3nncc4ccccc34)cc(Br)cc21` (stereo not drawn) [Compound I-760] is 10 to 100 µM; for `O=C1NC(c2cc(F)ccc2Cl)c2c(Nc3nccc4cccnc34)cc(Br)cc21` (stereo not drawn) [Compound I-761] it is 10 to 100 µM; for `O=C1NC(c2cc(F)ccc2Cl)c2c(Nc3nccc4ccccc34)cc(Br)cc21` (stereo not drawn) [Compound I-762] it is 1 to 10 µM. The compound `O=C(Nc1cc(Br)cc2c1C(c1cc(Cl)ccc1Cl)NC2=O)c1cc(F)cc(C(F)(F)F)c1` (stereo not drawn) [Compound I-763] showed an IC50 not above 0.1 µM. The compound `O=C(Nc1cc(Br)cc2c1[C@@H](c1cc(Cl)ccc1Cl)NC2=O)c1cc(F)cc(C(F)(F)F)c1` [Compound I-764] showed an IC50 of 1 to 10 µM.

In turn, `O=C(Nc1cc(Br)cc2c1[C@H](c1cc(Cl)ccc1Cl)NC2=O)c1cc(F)cc(C(F)(F)F)c1` [Compound I-765] came in with an IC50 not above 0.1 µM. Then `O=C1NC(c2cc(F)ccc2Cl)c2c(NC(=O)N3CC(=O)N4CCCC4C3)cc(Br)cc21` (stereo not drawn) [Compound I-766], with 10 to 100 µM; and `O=C(Nc1cccc2c1C(c1cc(F)ccc1Cl)NC2=O)c1cc(Cl)cc(F)c1F` (stereo not drawn) [Compound I-767], with 0.1 to 0.5 µM.

`O=C(Nc1cccc2c1C(c1cc(F)ccc1Cl)NC2=O)c1cc(F)cnc1NC1CCC1` (stereo not drawn) [Compound I-768] displayed an IC50 of 1 to 10 µM.

`O=C1NC(c2cc(F)ccc2Cl)c2c(NC(=O)N3CCCC3c3ccccc3)cc(Br)cc21` (stereo not drawn) [Compound I-769] registered an IC50 of 1 to 10 µM.

On to `O=C1NC(c2cc(F)ccc2Cl)c2c(NC(=O)N3CCCCC3c3ccccc3)cc(Br)cc21` (stereo not drawn) [Compound I-772], for which the IC50 was in the range of 1 to 10 µM. Then `COc1cc(NC(=O)c2cc(F)cc(C(F)(F)F)c2)c2c(c1)C(=O)NC2c1cc(F)ccc1Cl` (stereo not drawn) [Compound I-773], with not above 0.1 µM; and `O=C(Nc1cc(Br)cc2c1C(c1cc(F)ccc1Cl)NC2=O)c1cc(F)cc(S(F)(F)(F)(F)F)c1` (stereo not drawn) [Compound I-774], with not above 0.1 µM.

`CP(C)(=O)Cc1cc(NC(=O)c2cc(F)cc(C(F)(F)F)c2)c2c(c1)C(=O)NC2c1cc(F)ccc1Cl` (stereo not drawn) [Compound I-775] gave an IC50 not above 0.1 µM.

For `O=C(Nc1cc(C2CC(F)(F)C2)cc2c1C(c1cc(F)ccc1Cl)NC2=O)c1cc(F)cc(C(F)(F)F)c1` (stereo not drawn) [Compound I-779], the half-inhibitory concentration (IC50) was not above 0.1 µM. Then `COc1ncc(-c2cc(NC(=O)c3cc(F)cc(C(F)(F)F)c3)c3c(c2)C(=O)NC3c2cc(F)ccc2Cl)cn1` (stereo not drawn) [Compound I-782], with not above 0.1 µM; and `Cc1ncc(-c2cc(NC(=O)c3cc(F)cc(C(F)(F)F)c3)c3c(c2)C(=O)N[C@@H]3c2cc(F)ccc2Cl)cn1` [Compound I-783], with 1 to 10 µM.

`Cc1ncc(-c2cc(NC(=O)c3cc(F)cc(C(F)(F)F)c3)c3c(c2)C(=O)N[C@H]3c2cc(F)ccc2Cl)cn1` [Compound I-784] registered an IC50 not above 0.1 µM. The figure for `O=C(Nc1cc(Br)cc2c1C(c1cc(Cl)cc(F)c1F)NC2=O)c1cc(F)cc(C(F)(F)F)c1` (stereo not drawn) [Compound I-785] is not above 0.1 µM; for `O=C(Nc1cc(Br)cc2c1[C@H](c1cc(Cl)cc(F)c1F)NC2=O)c1cc(F)cc(C(F)(F)F)c1` [Compound I-786] it is not above 0.1 µM. Then `O=C(Nc1cc(Br)cc2c1[C@@H](c1cc(Cl)cc(F)c1F)NC2=O)c1cc(F)cc(C(F)(F)F)c1` [Compound I-787], with 1 to 10 µM; and `O=C(Nc1cc(Br)cc2c1C(c1cc(F)ccc1Cl)NC2=O)c1cc(F)ccc1OC(F)(F)F` (stereo not drawn) [Compound I-788], with 1 to 10 µM; and `O=C(Nc1cc(Br)cc2c1[C@H](c1ccccc1C(F)F)NC2=O)c1cc(F)cc(C(F)(F)F)c1` [Compound I-789], with not above 0.1 µM. The compound `O=C(Nc1cc(Br)cc2c1[C@@H](c1ccccc1C(F)F)NC2=O)c1cc(F)cc(C(F)(F)F)c1` [Compound I-790] showed a 50% inhibitory concentration (IC50) of 1 to 10 µM.

On to `O=C(Nc1cc(Br)cc2c1C(c1cc(F)ccc1Cl)NC2=O)c1cc(F)ccc1Cl` (stereo not drawn) [Compound I-791], for which the IC50 fell in the range of 10 to 100 µM. `O=C(Nc1cc(Br)cc2c1C(c1ccccc1C(F)F)NC2=O)c1cc(F)cc(C(F)(F)F)c1` (stereo not drawn) [Compound I-792] showed a half-maximal inhibitory concentration (IC50) not above 0.1 µM. Then `O=C(Nc1cc(Br)cc2c1C(c1cc(F)ccc1Cl)NC2=O)c1cc(F)ccc1F` (stereo not drawn) [Compound I-793], with 1 to 10 µM; and `O=C(Nc1cc(Br)cc2c1C(c1cc(F)ccc1Cl)NC2=O)c1cc(Cl)ccc1F` (stereo not drawn) [Compound I-794], with 1 to 10 µM. Then `O=C(Nc1cc(Br)cc2c1C(c1cc(F)ccc1Cl)NC2=O)c1cc(Cl)ccc1Cl` (stereo not drawn) [Compound I-795], with 1 to 10 µM; and `COc1ccc(F)cc1C(=O)Nc1cc(Br)cc2c1C(c1cc(F)ccc1Cl)NC2=O` (stereo not drawn) [Compound I-796], with 1 to 10 µM. The figure for `O=C(Nc1cc(Br)cc2c1[C@H](c1cc(F)ccc1C(F)F)NC2=O)c1cc(F)cc(C(F)(F)F)c1` [Compound I-797] is not above 0.1 µM; for `O=C(Nc1cc(Br)cc2c1[C@@H](c1cc(F)ccc1C(F)F)NC2=O)c1cc(F)cc(C(F)(F)F)c1` [Compound I-798] it is 1 to 10 µM. Regarding `COc1ccc(Cl)cc1C(=O)Nc1cc(Br)cc2c1C(c1cc(F)ccc1Cl)NC2=O` (stereo not drawn) [Compound I-799], the 50% inhibitory concentration (IC50) fell in the range of 1 to 10 µM. The compound `COc1cc(F)cc(C(=O)Nc2cc(Br)cc3c2C(c2cc(F)ccc2Cl)NC3=O)c1` (stereo not drawn) [Compound I-800] registered an IC50 of 0.5 to 1 µM. In turn, `O=C(Nc1cc(Br)cc2c1C(c1cc(F)ccc1Cl)NC2=O)c1cccc(C(F)(F)F)c1` (stereo not drawn) [Compound I-801] gave a half-maximal inhibitory concentration (IC50) of 0.1 to 0.5 µM. The compound `O=C1NC(c2cc(F)ccc2Cl)c2c(NC(=O)c3cc(Cl)cc4cccnc34)cc(Br)cc21` (stereo not drawn) [Compound I-802] displayed an IC50 of 10 to 100 µM.

Turning to `O=C(Nc1cc(Br)cc2c1[C@H](c1cc(F)cc(F)c1Cl)NC2=O)c1cc(F)cc(C(F)(F)F)c1` [Compound I-805], the IC50 was not above 0.1 µM. Then `O=C(Nc1cc(Br)cc2c1[C@@H](c1cc(F)cc(F)c1Cl)NC2=O)c1cc(F)cc(C(F)(F)F)c1` [Compound I-806], with 0.5 to 1 µM; and `O=C(Nc1cc(Br)cc2c1C(c1cc(F)cc(F)c1Cl)NC2=O)c1cc(F)cc(C(F)(F)F)c1` (stereo not drawn) [Compound I-807], with not above 0.1 µM. For the compound `CNC(=O)c1cc(NC(=O)c2cc(F)cc(C(F)(F)F)c2)c2c(c1)c(=O)[nH]n2-c1cc(F)ccc1Cl` [Compound I-808], the half-inhibitory concentration (IC50) was in the range of 1 to 10 µM. The figure for `O=C(Nc1cc(Br)cc2c1C(c1cc(F)ccc1Cl)NC2=O)c1cc(F)cc(C(F)(F)F)c1Cl` (stereo not drawn) [Compound I-809] is 1 to 10 µM; for `O=C1Cc2cccc(C3NC(=O)c4cccc(NC(=O)c5cc(F)cc(C(F)(F)F)c5)c43)c2N1` (stereo not drawn) [Compound I-810] it is 10 to 100 µM; for `O=C(Nc1cc(OC(F)F)cc2c1C(c1cc(F)ccc1Cl)NC2=O)c1cc(F)cc(C(F)(F)F)c1` (stereo not drawn) [Compound I-812] it is not above 0.1 µM. The compound `CC1(Nc2cc(NC(=O)c3cc(F)cc(C(F)(F)F)c3)c3c(c2)C(=O)N[C@H]3c2cc(F)ccc2Cl)COC1` [Compound I-813] returned an IC50 not above 0.1 µM.

`O=C(Nc1cc(-c2ccn[nH]2)cc2c1C(c1cc(F)ccc1Cl)NC2=O)c1cc(F)cc(C(F)(F)F)c1` (stereo not drawn) [Compound I-815] displayed an IC50 not above 0.1 µM. Compound `O=C(Nc1cc(Br)cc2c1C(c1cc(F)ccc1Cl)NC2=O)c1cc(F)cc(Cl)c1Cl` (stereo not drawn) [Compound I-816] yielded an IC50 of 0.1 to 0.5 µM.

With `CC1(Cc2cc(NC(=O)c3cc(F)cc(C(F)(F)F)c3)c3c(c2)C(=O)N[C@@H]3c2cc(F)ccc2Cl)COC1` [Compound I-817], the half-inhibitory concentration (IC50) lay in the range of 1 to 10 µM. The figure for `CC1(Cc2cc(NC(=O)c3cc(F)cc(C(F)(F)F)c3)c3c(c2)C(=O)N[C@H]3c2cc(F)ccc2Cl)COC1` [Compound I-818] is not above 0.1 µM; for `CC(C)(O)COc1cc(NC(=O)c2cc(F)cc(Cl)c2)c2c(c1)C(=O)NC2c1cc(F)ccc1Cl` (stereo not drawn) [Compound I-819] it is not above 0.1 µM; for `COC(C)(C)Cc1cc(NC(=O)c2cc(F)cc(C(F)(F)F)c2)c2c(c1)C(=O)NC2c1cc(F)ccc1Cl` (stereo not drawn) [Compound I-820] it is not above 0.1 µM. For the compound `O=C(Nc1cc(-c2ccc3nncn3c2)cc2c1C(c1cc(F)ccc1Cl)NC2=O)c1cc(F)cc(C(F)(F)F)c1` (stereo not drawn) [Compound I-821], the IC50 is not above 0.1 µM. `O=C(Nc1cc(-c2cnc(C3CC3)nc2)cc2c1C(c1cc(F)ccc1Cl)NC2=O)c1cc(F)cc(C(F)(F)F)c1` (stereo not drawn) [Compound I-822] showed a half-maximal inhibitory concentration (IC50) not above 0.1 µM. Then `O=C(Nc1cc(-c2cnc(C(F)(F)F)nc2)cc2c1C(c1cc(F)ccc1Cl)NC2=O)c1cc(F)cc(C(F)(F)F)c1` (stereo not drawn) [Compound I-823], with not above 0.1 µM. Then `O=C(Nc1cc(-c2ccc3ncnn3c2)cc2c1C(c1cc(F)ccc1Cl)NC2=O)c1cc(F)cc(C(F)(F)F)c1` (stereo not drawn) [Compound I-824], with not above 0.1 µM. The figure for `O=C(Nc1cc(-c2cnc3nccn3c2)cc2c1C(c1cc(F)ccc1Cl)NC2=O)c1cc(F)cc(C(F)(F)F)c1` (stereo not drawn) [Compound I-825] is not above 0.1 µM. In turn, `O=C(Nc1cc(-c2ccc3nccn3c2)cc2c1[C@@H](c1cc(F)ccc1Cl)NC2=O)c1cc(F)cc(C(F)(F)F)c1` [Compound I-826] registered a half-inhibitory concentration (IC50) of 0.5 to 1 µM. In turn, `O=C(Nc1cc(-c2ccc3nccn3c2)cc2c1[C@H](c1cc(F)ccc1Cl)NC2=O)c1cc(F)cc(C(F)(F)F)c1` [Compound I-827] had an IC50 not above 0.1 µM. Then `Nc1cc(C2NC(=O)c3cccc(NC(=O)c4cc(F)cc(C(F)(F)F)c4)c32)ccn1` (stereo not drawn) [Compound I-828], with 10 to 100 µM; and `CC1(Nc2cc(NC(=O)c3cc(F)cc(C(F)(F)F)c3)c3c(c2)C(=O)N[C@@H]3c2cc(F)ccc2Cl)COC1` [Compound I-829], with 0.5 to 1 µM.
